Laboratory results from patent publication US20240050385A1, “METHODS OF TREATING LEPTOMENINGEAL METASTASIS” (MEMORIAL SLOAN-KETTERING CANCER CENTER, priority 2020, published 2024).

Assays:
[1] = system: LCN2; assay: LCN2 ELISA after recombinant cytokine stimulation; assay type: cell-based; conditions: recombinant cytokine added to artificial CSF; PC9, MDA231 or LLC LeptoM cells; ELISA at 48 h
Method: FIG. 11A-11E. Proinflammatory cytokines in human CSF. (A) LCN2 was quantified by ELISA in the CSF from patients harboring LM was treated with neutralizing antibody against IL-6 or IL-8 and added to MDA231-LeptoM cells for 12 hours. N=3 in each of two independent experiments. NS=not significant, * indicates p<0.05, ** indicates p<0.01, *** indicates p<0.001 (unpaired t test). Data represent mean±SEM. (B) Evaluation of LCN2 expression by ELISA with the treatment of pro-inflammatory cytokines IL-6, IL-8, IL-1β and TNF in PC9-Par and PC9-LeptoM cells. LCN2 expression was determined by ELISA of conditioned media collected 48 hours after recombinant cytokine stimulation. N=3 in each of two independent experiments. *indicates p<0.05 (unpaired t test). Data represent mean±SEM. (C) LCN2 expression by ELISA 48 h after treatment of MDA-Par and MDA-LeptoM cells with IL-6, IL-8, IL-1β and TNF. LCN2 expression by ELISA in conditioned media for 48 hours after recombinant cytokines stimulation. N=3 in each of two independent experiments. *indicates p<0.05 (unpaired t test). Data represent mean±SEM. (D) LCN2 expression by ELISA 48 h after treatment of LLC-Par and LLC-LeptoM cells with IL-6, IL-1β and TNF. N=3 in each of two independent experiments. * indicates p<0.05 (unpaired t test). Data represent mean±SEM. (E) Visualization of macrophage cells in first two diffusion components. First diffusion component is best matched by Hypoxia as indicated with GSEA es=0.6, fdr=0 and M1 phenotype es=−0.5, fdr=0.11, while second diffusion component is best matched by M2 phenotype es=0.7, fdr=0. MAGIC imputed gene set expression was standardized to zero mean and unit of standard deviation.
Secreted protein detection. Human LCN2 (Abcam, ab215541), Hepcidin (R&D, DHP250), Transferrin (Abcam, ab187391), Ferritin (LSBio, LS-F428-1), IL-6 (R&D, D6050), IL-8 (R&D, D8000C), IL-1β (R&D, DLB50), TNF expression (Abcam, ab181421) in CSF patient samples or cell culture supernatants were measured using ELISA kits according to manufacturer's instructions. […]

[2] = system: LeptoM cells expressing shLCN2; assay: Tumor growth in mice injected with LeptoM cells expressing shLCN2, treated with holo-transferrin; assay type: in vivo, mouse; conditions: 5 mg/mL holo-transferrin intracisternal every third day, 7 doses
From the text: (§1) FIG. 14A-14K. Leptomeningeal metastasis requires iron transporters. (A) Total iron measured by mass spectroscopy in CSF cancer patients with and without LM. Presence of LM is indicated +/−. N=11 cancer patients without LM and n=12 cancer patients with LM. * indicates p<0.05 (unpaired t test). Data represent mean±SEM. (B) LCN2 iron binding assay in patient CSF. Non-LCN2-bound iron [NLBI] and LCN2-bound iron [LBI] was detected in the CSF from cancer patients with or without LM. N=10. **** indicates p<0.0001 (unpaired t test). Data represent mean±SEM. (C) Expression of genes associated with iron transport in parental cells and LeptoM cells by bulk RNA sequencing. N=2 in PC9 cells and n=3 in LeptoM cells. Presented as log 2 fold change in each group with cutoff <20 normalized counts. (D) Tumor growth in mice injected with PC9-LeptoM cells expressing shCtl or shLCN2. Treatment with either vehicle or 5 mg/Ml holo-transferrin (diferric [Tf]) was commenced on day 1 and continued every third day for a total of 7 doses. Left: Histogram represents in vivo BLI imaging post-inoculation at day 21. N=6-8 per group in each of two independent experiments. Right: Representative BLI images. Sh1+Veh vs sh1+Tf, p=0.2087. sh2+Veh vs sh2+Tf, p=0.0604. Data represent mean±SEM. […] Iron measured by colorimetric assay. […] Intracellular iron was determined by colorimetric assay. […]

[3] = system: PC9-LeptoM cells; assay: Cell associated iron and viability of PC9-LeptoM cells after knockdown of SLC22A17 or LCN2; assay type: cell-based, human; conditions: 100 μg/mL diferric Tf added in vitro
From the text: as §1, with “21.” for “21. N=6-8 per group in each of two independent experiments. Right: Representative BLI images. Sh1+Veh vs sh1+Tf, p=0.2087. sh2+Veh vs sh2+Tf, p=0.0604. Data represent mean±SEM.”
Cell Viability Assay. […] The CellTiter-Glo Luminescent Cell Viability Assay (Promega G9241) was used to quantify viable cells in culture according to the manufacturer's protocols. […]

| Substance | expression of LCN2 [1] | rescue of LCN2 knockdown by shRNA in vivo (tumor growth, survival) [2] | cell growth after SLC22A17 or LCN2 knockdown [3] | intracellular iron accumulation after SLC22A17 or LCN2 knockdown [3] |
| --- | --- | --- | --- | --- |
| IL-1β: recombinant IL-1β (R&D) added to culture media | induced expression of LCN2 |  |  |  |
| IL-6: recombinant IL-6 (R&D) added to culture media | induced expression of LCN2 |  |  |  |
| IL-8: recombinant IL-8 (R&D) added to culture media | induced expression of LCN2 |  |  |  |
| transferrin: iron-loaded (diferric) holo-transferrin, Invitria 777TRF029 |  | partially rescued | rescued | rescued |
